In ChEMBL document CHEMBL4602695, “Discovery and SARs of 5-Chloro-N4-phenyl-N2-(pyridin-2-yl)pyrimidine-2,4-diamine Derivatives as Oral Available and Dual CDK 6 and 9 Inhibitors with Potent Antitumor Activity” (J Med Chem, 2020):
Activity calls are given as the source filed them. The calls are words filed in the database; no cut-off is given here.

What was measured:
MDA-MB-231 [1] = assay: Antiproliferative activity against human MDA-MB-231 cells assessed as inhibition of cell proliferation measured after 48 hrs by CCK8 assay; type: functional, cell-based; details: MDA-MB-231, 48 h
MDA-MB-231 [2] = assay: Antitumor activity against human MDA-MB-231 cells xenografted in BALB/c nu/nu mouse assessed as tumor growth inhibition at 45 mg/kg, po administered once daily for 3 weeks and measured at 3 days interval during compound dosing; type: functional, organism-based
Jurkat = assay: Antiproliferative activity against human Jurkat cells assessed as inhibition of cell proliferation measured after 48 hrs by CCK8 assay; type: functional, cell-based
MCF7 = assay: Antiproliferative activity against human MCF7 cells assessed as inhibition of cell proliferation measured after 48 hrs by CCK8 assay; type: functional, cell-based; details: MCF7, 48 h
MDA-MB-231 [3] = assay: Cell cycle arrest in human MDA-MB-231 cells assessed as accumulation at G0/G1 phase at 20 uM measured after 48 hrs by propidium iodide staining based flow cytometry (reference value: 57.65%); type: functional
MDA-MB-231 [4] = assay: Induction of apoptosis in human MDA-MB-231 cells assessed as late apoptotic cells at 20 uM measured after 48 hrs by Annexin V-FITC/propidium iodide staining based flow cytometry (2.78%); type: functional
MDA-MB-231 [5] = assay: Cell cycle arrest in human MDA-MB-231 cells assessed as accumulation at G2/M phase at 20 uM measured after 48 hrs by propidium iodide staining based flow cytometry (reference value: 15.9%); type: functional
MDA-MB-231 [6] = assay: Induction of apoptosis in human MDA-MB-231 cells assessed as early apoptotic cells at 20 uM measured after 48 hrs by Annexin V-FITC/propidium iodide staining based flow cytometry (0.877%); type: functional
[7] = Cytotoxicity against human L02 cells assessed as inhibition of cell proliferation measured after 48 hrs by CCK8 assay; type: cell-based
MDA-MB-231 [8] = assay: Cell cycle arrest in human MDA-MB-231 cells assessed as accumulation at S phase at 20 uM measured after 48 hrs by propidium iodide staining based flow cytometry (reference value: 26.45%); type: functional
MDA-MB-231 [9] = assay: Induction of apoptosis in human MDA-MB-231 cells assessed as viable cells at 20 uM measured after 48 hrs by Annexin V-FITC/propidium iodide staining based flow cytometry (95.8%); type: functional; details: MDA-MB-231, 48 h, read-out: Activity
MDA-MB-231 [10] = assay: Induction of apoptosis in human MDA-MB-231 cells assessed as necrotic cells at 20 uM measured after 48 hrs by Annexin V-FITC/propidium iodide staining based flow cytometry (0.498%); type: functional
[11] = biological target: CDK9/cyclin T1 (Homo sapiens) (UniProt O60563+P50750); assay: Binding affinity to recombinant His-tagged CDK9/cyclin T1 (unknown origin) expressed in HEK293T cells assessed as thermal stabilization of protein at 10 uM measured for 3 mins at 57 degC by CETSA; type: cell-based; details: HEK-293T
[12] = biological target: Cyclin-dependent kinase 9 (Homo sapiens) (UniProt P50750); assay: Inhibition of CDK9 in human MDA-MB-231 cells assessed as down regulation of p-Pol II CTD S2 expression at 4 to 12 uM measured after 48 hrs by Western blot analysis; type: cell-based
Cyclin-dependent kinase 9 (Homo sapiens), sequence (P50750 whole entry): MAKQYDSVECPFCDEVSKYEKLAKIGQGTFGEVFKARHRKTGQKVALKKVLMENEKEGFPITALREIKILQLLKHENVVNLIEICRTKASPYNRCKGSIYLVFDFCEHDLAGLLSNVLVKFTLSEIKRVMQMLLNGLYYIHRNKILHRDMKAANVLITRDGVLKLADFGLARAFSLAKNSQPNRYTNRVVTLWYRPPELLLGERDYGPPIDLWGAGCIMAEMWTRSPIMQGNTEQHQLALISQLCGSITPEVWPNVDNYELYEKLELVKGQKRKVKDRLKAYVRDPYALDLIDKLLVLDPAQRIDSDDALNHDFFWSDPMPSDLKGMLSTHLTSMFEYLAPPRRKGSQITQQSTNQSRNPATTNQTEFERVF

MDA-MB-231 [13] = assay: Effect on CDK6 expression in human MDA-MB-231 cells at 4 to 12 uM measured after 48 hrs by Western blot analysis; type: functional, cell-based
MDA-MB-231 [14] = assay: Antitumor activity against human MDA-MB-231 cells xenografted in po dosed BALB/c nu/nu mouse assessed as tumor growth inhibition administered once daily for 3 weeks and measured at 3 days interval during compound dosing; type: functional, organism-based
MDA-MB-231 [15] = assay: Induction of apoptosis in human MDA-MB-231 cells xenografted in BALB/c nu/nu mouse assessed as increase in intracellular space at 22.5 to 90 mg/kg, po administered once daily for 3 weeks measured post-last dose by H and E staining based histopathological analysis; type: functional, organism-based
MDA-MB-231 [16] = assay: Effect on CDK9 expression in human MDA-MB-231 cells at 4 to 12 uM measured after 48 hrs by Western blot analysis; type: functional, cell-based
MDA-MB-231 [17] = assay: Induction of apoptosis in human MDA-MB-231 cells xenografted in BALB/c nu/nu mouse assessed as increase in cytoplasm shrinkage at 22.5 to 90 mg/kg, po administered once daily for 3 weeks measured post-last dose by H and E staining based histopathological analysis; type: functional, organism-based
[18] = biological target: Cyclin-C/Cyclin-dependent kinase 19 (Homo sapiens) (UniProt Q9BWU1+P24863); assay: Inhibition of recombinant human GST-tagged/His-tagged CDK11 (1 to 502 residues)/cyclinC (1 to 283 residues) expressed in insect cells at 1 uM using PAK1 (148 to 210 residues) as substrate measured after 10 to 60 mins by ADP-glo assay relative to control
MDA-MB-231 [19] = assay: Induction of apoptosis in human MDA-MB-231 cells xenografted in BALB/c nu/nu mouse assessed as increase in nucleoplasm staining at 22.5 to 90 mg/kg, po administered once daily for 3 weeks measured post-last dose by H and E staining based histopathological analysis; type: functional, organism-based
[20] = biological target: Cyclin-dependent kinase 6 (Homo sapiens) (UniProt Q00534); assay: Inhibition of CDK6 in human MDA-MB-231 cells assessed as down regulation of E2F1 expression at 4 to 12 uM measured after 48 hrs by Western blot analysis; type: cell-based
Cyclin-dependent kinase 6 (Homo sapiens), sequence (Q00534 whole entry): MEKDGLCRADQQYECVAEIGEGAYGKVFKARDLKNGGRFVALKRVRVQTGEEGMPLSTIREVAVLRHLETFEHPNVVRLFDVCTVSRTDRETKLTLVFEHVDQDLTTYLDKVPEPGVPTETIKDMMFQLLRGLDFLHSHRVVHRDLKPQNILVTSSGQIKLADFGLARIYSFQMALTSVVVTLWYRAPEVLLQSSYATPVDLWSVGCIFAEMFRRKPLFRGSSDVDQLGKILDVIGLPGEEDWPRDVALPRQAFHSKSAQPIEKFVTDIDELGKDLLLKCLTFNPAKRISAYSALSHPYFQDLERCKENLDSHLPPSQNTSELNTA

[21] = biological target: Cyclin-dependent kinase 9 (Homo sapiens) (UniProt P50750); assay: Inhibition of CDK9 in human MDA-MB-231 cells assessed as reduction in Mcl-1 mRNA level at 4 to 12 uM by trizol reagent based qRT-PCR analysis; type: cell-based
[22] = biological target: CDK6/cyclin D3 (Homo sapiens) (UniProt P30281+Q00534); assay: Binding affinity to recombinant His-tagged CDK6/cyclin D3 (unknown origin) expressed in HEK293T cells assessed as thermal stabilization of protein at 10 uM measured for 3 mins at 57 degC by CETSA; type: cell-based; details: HEK-293T
MDA-MB-231 [23] = assay: Induction of intracellular reactive oxygen species production in human MDA-MB-231 cells measured after 48 hrs by DCFH-DA probe based flow cytometry; type: functional, cell-based
[24] = biological target: CDK3/Cyclin E (Homo sapiens) (UniProt P24864+Q00526); details: Sf9, 1 uM
CDK3/Cyclin E (Homo sapiens), sequence (P24864 whole entry, looked up): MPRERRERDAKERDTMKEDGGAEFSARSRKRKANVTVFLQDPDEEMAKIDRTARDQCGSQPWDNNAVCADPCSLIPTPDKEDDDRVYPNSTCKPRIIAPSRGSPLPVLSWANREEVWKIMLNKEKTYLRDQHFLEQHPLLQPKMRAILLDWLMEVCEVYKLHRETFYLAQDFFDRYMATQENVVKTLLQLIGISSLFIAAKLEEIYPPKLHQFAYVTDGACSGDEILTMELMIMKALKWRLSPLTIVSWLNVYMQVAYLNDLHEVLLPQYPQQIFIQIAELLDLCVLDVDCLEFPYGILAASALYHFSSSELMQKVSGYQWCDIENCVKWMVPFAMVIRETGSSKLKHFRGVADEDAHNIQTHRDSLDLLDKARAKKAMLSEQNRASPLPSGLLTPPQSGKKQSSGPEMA
CDK3/Cyclin E (Homo sapiens), sequence (Q00526 whole entry, looked up): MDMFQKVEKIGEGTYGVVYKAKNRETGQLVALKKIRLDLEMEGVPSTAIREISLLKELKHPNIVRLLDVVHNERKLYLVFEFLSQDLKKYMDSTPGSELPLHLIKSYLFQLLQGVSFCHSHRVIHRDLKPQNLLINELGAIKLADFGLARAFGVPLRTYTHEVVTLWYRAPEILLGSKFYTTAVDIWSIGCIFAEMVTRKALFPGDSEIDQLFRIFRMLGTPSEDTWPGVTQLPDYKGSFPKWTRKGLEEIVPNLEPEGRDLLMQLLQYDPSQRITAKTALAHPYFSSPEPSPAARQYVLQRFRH

[25] = biological target: Cyclin-dependent kinase 9 (Homo sapiens) (UniProt P50750); assay: Inhibition of CDK9 in human MDA-MB-231 cells assessed as reduction in c-Myc mRNA level at 4 to 12 uM by trizol reagent based qRT-PCR analysis; type: cell-based
[26] = biological target: Cyclin-dependent kinase 6 (Homo sapiens) (UniProt Q00534); assay: Inhibition of CDK6 in human MDA-MB-231 cells assessed as down regulation of p-Rb expression at 4 to 12 uM measured after 48 hrs by Western blot analysis; type: cell-based
[27] = biological target: Cyclin-dependent kinase 9 (Homo sapiens) (UniProt P50750); assay: Inhibition of CDK9 in human MDA-MB-231 cells assessed as down regulation of cyclin T1 expression at 4 to 12 uM measured after 48 hrs by Western blot analysis; type: cell-based

CCN1CCN(Cc2ccc(Nc3ncc(F)c(-c4cc(F)c5nc(C)n(C(C)C)c5c4)n3)nc2)CC1 [ABEMACICLIB]
GI50 (MDA-MB-231 [1]): 3.45 µM
TGI (MDA-MB-231 [2]): Active
GI50 (Jurkat): 4.63 µM
GI50 (MCF7): 4.01 µM

CC(=O)c1c(C)c2cnc(Nc3ccc(N4CCNCC4)cn3)nc2n(C2CCCC2)c1=O [PALBOCICLIB]
Activity (MDA-MB-231 [3]): 91.91%
GI50 (MDA-MB-231 [1]): > 100 µM
Activity (MDA-MB-231 [4]): 5.26%
Activity (MDA-MB-231 [5]): 3.12%
GI50 (Jurkat): > 100 µM
Activity (MDA-MB-231 [6]): 3.43%
GI50 at 48 h [7]: > 100 µM
Activity (MDA-MB-231 [8]): 4.98%
viability at 20 µM (MDA-MB-231 [9]): 89%
Activity (MDA-MB-231 [10]): 2.32%
GI50 (MCF7): > 100 µM

CC(=O)Nc1cccc(Nc2nc(Nc3ccc(N4CCN(C)CC4)cn3)ncc2Cl)c1
Activity [11]: Active
inhibition [12]: Active
Activity (MDA-MB-231 [13]): inactive
TGI (MDA-MB-231 [14]): Dose-dependent effect
Activity (MDA-MB-231 [15]): Active
Activity (MDA-MB-231 [16]): inactive
Activity (MDA-MB-231 [17]): Active
inhibition [18]: < 6.6%
Activity (MDA-MB-231 [19]): Active
inhibition [20]: Active
inhibition [21]: Active
Activity [22]: Active
Activity (MDA-MB-231 [23]): Dose-dependent effect
inhibition [24]: < 6.6%
inhibition [25]: Active
inhibition [26]: Active
inhibition [27]: Active
